The target in this assay is T1, Apelin receptor (Homo sapiens, UniProt P35414).
T1 sequence (P35414 whole entry): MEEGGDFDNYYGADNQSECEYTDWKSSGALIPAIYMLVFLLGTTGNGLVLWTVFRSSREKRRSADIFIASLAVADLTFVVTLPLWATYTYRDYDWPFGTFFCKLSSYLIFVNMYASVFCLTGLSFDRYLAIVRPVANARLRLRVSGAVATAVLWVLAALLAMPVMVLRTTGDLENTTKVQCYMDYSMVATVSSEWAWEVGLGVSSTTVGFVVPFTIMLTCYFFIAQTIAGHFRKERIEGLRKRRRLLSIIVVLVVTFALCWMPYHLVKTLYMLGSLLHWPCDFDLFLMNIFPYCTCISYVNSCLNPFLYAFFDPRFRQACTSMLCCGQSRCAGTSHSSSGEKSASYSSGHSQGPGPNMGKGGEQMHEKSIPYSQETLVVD
In words: GTPγS Binding: The human APJ receptor was cloned by polymerase chain reaction and the gene encoding the receptor was subcloned in pFLAG-CMV-3 expression vector (Sigma, Saint Louis, Mo. USA) in-house at Amgen. A GTPγS binding assay was performed on membranes prepared from CHO cells stably expressing human APJ receptor. The optimum experimental conditions for the concentrations of GDP, MgCl2, and NaCl in the assay buffer were initially determined. The assay was performed in assay buffer [20 mM HEPES, pH 7.5, 5 mM MgCl2, and 0.1% (w/v) BSA with 200 mM NaCl, 3 μM GDP] and membranes expressing human APJ receptor/well along with WGA PS beads. The reaction was initiated by addition of 0.2 nM [35S]GTPγS in the absence or presence of various ligands and incubated at RT for 90 min. Nonspecific binding was determined in the presence of 100 μM GTPγS and was always less than 0.2% of total binding. A general note: GTPγS is a poorly hydrolysed GTP analogue; its binding reports G protein activation.

Experimental findings from ChEMBL document CHEMBL5727878, “Triazole furan compounds as agonists of the APJ receptor” (2020) are described below.

Each structure is given as a SMILES string. Values joined by “and” are separate entries in the source; they are usually repeats but may differ in a detail not shown here. Equal entries are not always repeated.

A word on the EC50: it is the concentration that produces a half-maximal response. In the case of `COc1cccc(OC)c1-n1c(NS(=O)(=O)[C@H]2CCCC[C@H]2c2ncc(F)cn2)nnc1-c1ccco1` (single isomer, unassigned), the EC50 turned out to be 4.5 nM.

Consider `COc1cccc(OC)c1-n1c(NS(=O)(=O)[C@@H](C)[C@@H](OCCO)c2ncc(C)cn2)nnc1-c1ccc(C)o1` (single isomer, unassigned), for which the EC50 stood at 0.15 nM.

Regarding `Cc1ccc(-c2nnc(NS(=O)(=O)[C@@H](C)Cc3ncc(F)cn3)n2C2CCCC2)o1` (mixture of isomers), the EC50 amounted to 270 nM.

As to `COc1cccc(OC)c1-n1c(NS(=O)(=O)C[C@@H](C)c2ncc(C)cn2)nnc1-c1ccco1` (single isomer, unassigned), the EC50 amounted to 6.7 nM.

`COc1cccc(OC)c1-n1c(NS(=O)(=O)[C@@H](C)Cc2ncc(F)c3[nH]cnc23)nnc1-c1ccco1` (single isomer, unassigned): the EC50 came out at 28 nM.

Take `CCc1cnc([C@@H](C)[C@H](C)S(=O)(=O)Nc2nnc(-c3ccc(C)o3)n2-c2c(OC)cccc2OC)nc1` (single isomer, unassigned): the EC50 stood at 3.4 nM.

In the case of `COc1cccc(OC)c1-n1c(NS(=O)(=O)CCc2ncc(F)cn2)nnc1-c1ccco1`, the EC50 amounted to 3.2 nM.

Take `COc1cccc(OC)c1-n1c(NS(=O)(=O)[C@@H](C)[C@@H](O)c2ncc(F)cn2)nnc1-c1ccc(C)o1` (single isomer, unassigned): the EC50 turned out to be 0.32 nM.

Turning to `COc1cccc(OC)c1-n1c(NS(=O)(=O)[C@@H](C)[C@H](O)c2cscn2)nnc1-c1ccc(C)o1` (mixture of isomers), the EC50 was 1.2 nM.

Turning to `CCc1ccc(-c2nnc(NS(=O)(=O)[C@@H](C)Cc3ncc(F)cn3)n2-c2c(OC)cccc2OC)o1` (mixture of isomers), the EC50 amounted to 0.13 nM.

In the case of `COc1cccc(OC)c1-n1c(NS(=O)(=O)[C@@H]2C[C@@H](C(=O)N3CCC3)CN(c3ncc(F)cn3)C2)nnc1-c1ccc(C)o1` (mixture of isomers), the EC50 turned out to be 0.32 nM.

Take `COc1cccc(OC)c1-n1c(NS(=O)(=O)[C@H](C)[C@H](O)c2cscn2)nnc1-c1ccc(C)o1` (mixture of isomers): the EC50 amounted to 16 nM.

In the case of `COc1cccc(OC)c1-n1c(NS(=O)(=O)CCN2C(=O)N(C)CC[C@H]2C)nnc1-c1ccco1` (single isomer, unassigned), the EC50 was determined as 0.7 nM.

For the compound `COc1cccc(OC)c1-n1c(NS(=O)(=O)[C@H]2CCCN(c3ncc(F)cn3)C2)nnc1-c1ccc(C)o1` (single isomer, unassigned), the EC50 was 3.2 nM.

Turning to `COc1cccc(OC)c1-n1c(NS(=O)(=O)[C@@H](C)[C@@H](OC)c2cn3ccccc3n2)nnc1-c1ccc(C)o1` (mixture of isomers), the EC50 was 0.96 nM.

Regarding `COc1cc[nH]c(=O)c1-n1c(NS(=O)(=O)[C@@H](C)[C@H](C)c2ncc(F)cn2)nnc1-c1ccc(C)o1` (single isomer, unassigned; form 1), the EC50 was 0.67 nM.

With `COc1cccc(OC)c1-n1c(NS(=O)(=O)[C@@H](C)[C@@H](O)c2coc(C)n2)nnc1-c1ccc(C)o1` (single isomer, unassigned), the EC50 worked out at 8.3 nM.

For the compound `COc1cccc(OC)c1-n1c(NS(=O)(=O)C[C@H](O)c2ccc(F)cn2)nnc1-c1ccc(C)o1` (mixture of isomers), the EC50 amounted to 0.17 nM.

Turning to `COc1cccc(OC)c1-n1c(NS(=O)(=O)[C@H](C)[C@](C)(O)c2ncc(F)cn2)nnc1-c1ccc(C)o1` (single isomer, unassigned), the EC50 was determined as 0.57 nM.

On to `COc1cc[nH]c(=O)c1-n1c(NS(=O)(=O)[C@@H](C)[C@H](C)c2ncc(C)cn2)nnc1-c1ccc(C)o1` (single isomer, unassigned; form 2), for which the EC50 was found to be 37 nM.

As for `COc1cccc(OC)c1-n1c(NS(=O)(=O)[C@@H](C)[C@H](C)c2cnc(C)c[n+]2[O-])nnc1-c1ccc(C)o1` (mixture of isomers), the EC50 is 0.14 nM.

For `COc1cccc(OC)c1-n1c(NS(=O)(=O)[C@H](C)Cc2ncc(F)cc2NC(C)=O)nnc1-c1ccco1` (single isomer, unassigned), the EC50 worked out at 0.21 nM.

As to `COc1cccc(OC)c1-n1c(NS(=O)(=O)C[C@@](C)(O)c2ncc(C#N)cn2)nnc1-c1ccc(C)o1` (mixture of isomers), the EC50 stood at 0.65 nM.

For `COc1cccc(OC)c1-n1c(NS(=O)(=O)[C@@H](C)[C@H](OC)c2ccc(C#N)cc2C#N)nnc1-c1ccc(C)o1` (mixture of isomers), the EC50 was determined as 0.21 nM.

For the compound `COc1cccc(OC)c1-n1c(NS(=O)(=O)[C@@H](C)Cc2ncc(Br)cn2)nnc1-c1ccco1` (single isomer, unassigned), the EC50 came to 0.31 nM.

Regarding `COc1cccc(OC)c1-n1c(NS(=O)(=O)[C@@H](C)[C@@H](O)c2cn3ccccc3n2)nnc1-c1ccc(C)o1` (single isomer, unassigned), the EC50 was determined as 1 nM.

Turning to `COc1cccc(OC)c1-n1c(NS(=O)(=O)[C@@H](C)[C@@H](O)c2cnc3ccccn23)nnc1-c1ccc(C)o1` (single isomer, unassigned), the concentration giving a half-maximal response (EC50) came out at 0.96 nM.

`COc1cccc(OC)c1-n1c(NS(=O)(=O)[C@@H]2C[C@@H](c3ccc(F)cc3)CN(C(C)=O)C2)nnc1-c1ccc(C)o1` (single isomer, unassigned): the EC50 was 0.75 nM.

With `COc1cccc(OC)c1-n1c(NS(=O)(=O)[C@@H](C)[C@H](O)c2cc3ccccn3n2)nnc1-c1ccc(C)o1` (single isomer, unassigned), the EC50 stood at 3.7 nM.

`COc1cccc(OC)c1-n1c(NS(=O)(=O)[C@H](C)[C@@H](O)c2ccnc3c2OCCC3)nnc1-c1ccc(C)o1` (mixture of isomers): the EC50 worked out at 13 nM.

Consider `COCn1cnc2c(C[C@H](C)S(=O)(=O)Nc3nnc(-c4ccco4)n3-c3c(OC)cccc3OC)ncc(F)c21` (mixture of isomers), for which the EC50 was found to be 0.77 nM.

With `COc1cccc(OC)c1-n1c(NS(=O)(=O)C[C@H](O)c2ccc(F)cn2)nnc1-c1ccc(C)o1` (single isomer, unassigned), the EC50 amounted to 0.29 nM.

Take `COc1cccc(OC)c1-n1c(NS(=O)(=O)[C@@H]2CCC[C@H]2c2ncc(F)cn2)nnc1-c1ccc(C)o1` (single isomer, unassigned): the EC50 came out at 2.8 nM.

As to `COc1cccc(OC)c1-n1c(NS(=O)(=O)[C@@H](C)Cc2ncc(F)c3c2ncn3C)nnc1-c1ccco1` (single isomer, unassigned), the EC50 was 0.98 nM.

On to `COc1cccc(OC)c1-n1c(NS(=O)(=O)[C@H](C)Cc2ncc(F)cn2)nnc1-c1ccco1` (mixture of isomers), for which the EC50 worked out at 0.29 nM.

As for `COc1cccc(OC)c1-n1c(NS(=O)(=O)[C@@H]2C[C@H](c3ccc(F)cc3)CN(C(C)=O)C2)nnc1-c1ccc(C)o1` (single isomer, unassigned), the EC50 amounted to 1.1 nM.

`COc1cc[nH]c(=O)c1-n1c(NS(=O)(=O)[C@@H](C)[C@H](C)c2ncc(F)cn2)nnc1-c1ccc(C)o1` (single isomer, unassigned; form 2): the 50% effective concentration (EC50) is 51 nM.

With `COc1cccc(OC)c1-n1c(NS(=O)(=O)[C@H]2COC[C@@H]2c2ncc(F)cn2)nnc1-c1ccco1` (single isomer, unassigned), the EC50 is 28 nM.

As to `COC[C@H]1CCCC(=O)N1C[C@@H](C)S(=O)(=O)Nc1nnc(-c2ccc(C)o2)n1-c1c(OC)cccc1OC` (single isomer, unassigned), the EC50 was found to be 0.48 nM.

On to `COc1cccc(OC)c1-n1c(NS(=O)(=O)[C@@H](C)[C@@H](O)c2ncn3ccccc23)nnc1-c1ccc(C)o1` (single isomer, unassigned), for which the EC50 was found to be 1.4 nM.

`COc1cccc(OC)c1-n1c(NS(=O)(=O)[C@H]2CCC[C@@H]2c2ncc(F)cn2)nnc1-c1ccc(C)o1` (mixture of isomers): the EC50 stood at 2 nM.

With `COc1cccc(OC)c1-n1c(NS(=O)(=O)[C@H]2C[C@@H](O)CN(c3cc(C#N)ccn3)C2)nnc1-c1ccc(C)o1` (single isomer, unassigned), the EC50 worked out at 0.17 nM.

For the compound `COc1cc[nH]c(=O)c1-n1c(NS(=O)(=O)[C@@H](C)[C@H](C)c2ncc(C)cn2)nnc1-c1ccc(C)o1` (single isomer, unassigned; form 1), the EC50 was 0.75 nM.

Turning to `COc1cccc(OC)c1-n1c(NS(=O)(=O)[C@H](C)[C@@H](O)c2cc3ccccn3n2)nnc1-c1ccc(C)o1` (mixture of isomers), the EC50 came out at 0.65 nM.

`COc1cccc(OC)c1-n1c(NS(=O)(=O)CCc2ccc(F)cn2)nnc1-c1ccco1`: the EC50 amounted to 12 nM.

Turning to `COc1cccc(OC)c1-n1c(NS(=O)(=O)[C@@H](C)Cc2ncc(F)cc2N2C[C@H](O)CC2=O)nnc1-c1ccco1` (mixture of isomers), the EC50 was 0.61 nM.

For `COc1cccc(OC)c1-n1c(NS(=O)(=O)[C@@H](C)[C@@H](O)c2cccc3ccnn23)nnc1-c1ccc(C)o1`, the EC50 was 0.79 nM and 0.87 nM.

`COc1cccc(OC)c1-n1c(NS(=O)(=O)C[C@H](O)c2ccc(Cl)cc2S(C)(=O)=O)nnc1-c1ccc(C)o1` (single isomer, unassigned): the EC50 was 0.09 nM.

For the compound `COc1cccc(OC)c1-n1c(NS(=O)(=O)[C@H](C)[C@@H](O)c2cnc(C)cn2)nnc1-c1ccc(C)o1` (single isomer, unassigned), the EC50 is 1.5 nM.

As for `COc1cccc(OC)c1-n1c(NS(=O)(=O)[C@@H]2CCCC[C@H]2c2ncc(F)cn2)nnc1-c1ccco1` (single isomer, unassigned), the EC50 is 30 nM.

As for `COC[C@@H]1CCCC(=O)N1CCS(=O)(=O)Nc1nnc(-c2ccco2)n1-c1c(OC)cccc1OC` (single isomer, unassigned), the EC50 is 2.1 nM.
